Target: USP7 (Homo sapiens (Human), UniProt Q93009)
Experiment: USP7 Biochemical IC50 Assay
Conditions: FLAG-USP7; enzyme and compound incubated 30 min at room temp; TAMRA labelled peptide-ubiquitin fluorescence polarisation substrate; read after 2 hr; read-out: IC50 range
Description: The USP7 construct was PCR amplified and cloned into a pFLAG-CMV-6a vector (Sigma-Aldrich) with an N-terminal FLAG tag. HEK293T cells were transfected with FLAG-USP7 using TransIT-LT1 transfection reagent (Mirus) according to the manufacturer's instructions. Cells were harvested 40 hours after transfection. […] The resin was washed two times with low salt buffer plus protease inhibitors (complete mini, Roche) and phosphatase inhibitors (PhosSTOP mini, Roche) and one time with high salt buffer (20 mM Tris, pH 7.5, 500 mM NaCl, 0.5 mM EDTA, 5 mM beta-mercaptoethanol, protease inhibitors (complete mini, Roche) and phosphatase inhibitors (PhosSTOP mini, Roche). To elute the bound USP7, elution buffer (10 mM Tris, pH 7.5, 150 mM NaCl, 0.5 mM EDTA, 10% glycerol, 0.5% NP40, 5 mM beta-mercaptoethanol, 0.15 mg/ml 3×FLAG peptide (Sigma-Aldrich)) was added to the resin and incubated at 4° C. for 2.5 hours rotating. The resin was centrifuged at 4000 rpm for 30 seconds, and the supernatant containing purified FLAG-USP7 was removed and stored at −80° C.
USP7 Biochemical IC50 Assay
A typical 8-point dilution series would be 100, 30, 10, 3, 1, 0.3, 0.1, 0.03 μM final. […] Either 1 μl of 50% DMSO or diluted compound was added to the plate. USP7 was diluted in reaction buffer (20 mM Tris, pH 7.5, 100 mM NaCl, 0.05% Tween 20, 0.5 mg/ml BSA, 5 mM—beta mercaptoethanol) to the equivalent of 0.0025 μl/well and 10 μl of diluted USP7 was added to the compound. Enzyme and compound were incubated for 30 min at room temp. Reactions were initiated by the addition of 50 nM of TAMRA labelled peptide linked to ubiquitin via an iso-peptide bond as fluorescence polarisation substrate. Reactions were read immediately after addition of substrate and following a 2 hr incubation at room temperature. Readings were performed on a Pherastar Plus (BMG Labtech). λ Excitation 540 nm; λ Emission 590 nm.

Sequence of USP7 (Q93009 whole entry): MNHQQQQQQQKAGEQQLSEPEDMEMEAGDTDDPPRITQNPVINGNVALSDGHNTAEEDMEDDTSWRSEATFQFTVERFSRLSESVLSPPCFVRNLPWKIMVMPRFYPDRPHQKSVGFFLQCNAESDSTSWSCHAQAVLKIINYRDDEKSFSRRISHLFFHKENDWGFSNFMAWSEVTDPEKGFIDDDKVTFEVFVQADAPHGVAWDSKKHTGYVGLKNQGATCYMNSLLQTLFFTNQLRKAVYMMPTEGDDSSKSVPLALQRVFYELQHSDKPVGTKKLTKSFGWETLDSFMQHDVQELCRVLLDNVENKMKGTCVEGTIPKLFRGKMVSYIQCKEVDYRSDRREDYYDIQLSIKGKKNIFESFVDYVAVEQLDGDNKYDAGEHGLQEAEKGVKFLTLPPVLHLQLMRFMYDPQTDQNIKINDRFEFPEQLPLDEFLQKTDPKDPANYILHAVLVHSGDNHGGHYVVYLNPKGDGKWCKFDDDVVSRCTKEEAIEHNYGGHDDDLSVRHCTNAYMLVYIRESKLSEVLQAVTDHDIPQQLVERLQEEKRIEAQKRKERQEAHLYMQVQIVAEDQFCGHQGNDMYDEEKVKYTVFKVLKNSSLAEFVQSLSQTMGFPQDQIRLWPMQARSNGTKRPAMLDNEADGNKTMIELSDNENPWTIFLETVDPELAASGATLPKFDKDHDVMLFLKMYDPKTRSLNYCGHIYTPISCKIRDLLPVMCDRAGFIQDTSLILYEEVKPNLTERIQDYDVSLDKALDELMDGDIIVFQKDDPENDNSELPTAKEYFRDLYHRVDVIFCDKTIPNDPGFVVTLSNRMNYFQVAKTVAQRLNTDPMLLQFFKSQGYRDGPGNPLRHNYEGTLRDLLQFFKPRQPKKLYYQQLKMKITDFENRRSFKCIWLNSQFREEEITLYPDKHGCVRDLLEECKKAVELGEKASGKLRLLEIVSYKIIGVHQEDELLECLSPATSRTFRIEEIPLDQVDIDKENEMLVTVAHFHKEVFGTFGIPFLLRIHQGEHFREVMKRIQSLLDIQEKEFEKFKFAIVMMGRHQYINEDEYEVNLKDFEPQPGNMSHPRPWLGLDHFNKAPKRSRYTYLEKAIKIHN

Row | IC50 [µM] | Compound
1 | 10 to 30 | N#CN1Cc2cnn(-c3ccccc3)c2C1 [Example 2, 1-Phenyl-4,6-dihydropyrrolo[3,4-c]pyrazole-5(1H)-carbonitrile]
2 | 10 to 30 | N#CN1Cc2cnn(-c3ccccc3F)c2C1 [Example 4, 1-(2-Fluorophenyl)-4,6-dihydropyrrolo[3,4-c]pyrazole-5(1H)-carbonitrile]
3 | < 10 | N#CN1Cc2cnn(-c3cnn(-c4ccccc4)c3)c2C1 [Example 8, 1-(1-Phenyl-1H-pyrazol-4-yl)-4,6-dihydropyrrolo[3,4-c]pyrazole-5(1H)-carbonitrile]
4 | 10 to 30 | N#CN1Cc2cnn(-c3cn(-c4ccccc4)cn3)c2C1 [Example 9, 1-(1-Phenyl-1H-imidazol-4-yl)-4,6-dihydropyrrolo[3,4-c]pyrazole-5(1H)-carbonitrile]
5 | 10 to 30 | Cc1nn(-c2ccccc2)c2c1CN(C#N)C2 [Example 10, 3-Methyl-1-phenyl-4,6-dihydropyrrolo[3,4-c]pyrazole-5(1H)-carbonitrile]
6 | < 10 | Cc1nn(-c2ccc(C(N)=O)cc2)c2c1CN(C#N)C2 [Example 16, 4-(5-Cyano-3-methyl-5,6-dihydropyrrolo[3,4-c]pyrazol-1(4H)-yl)benzamide]
7 | < 10 | N#CN1Cc2cnn(-c3n[nH]c4ccccc34)c2C1 [Example 19, 1-(1H-Indazol-3-yl)-4,6-dihydropyrrolo[3,4-c]pyrazole-5(1H)-carbonitrile]
8 | 10 to 30 | N#CN1Cc2cnn(-c3cc(-c4ccccc4)n[nH]3)c2C1 [Example 20, 1-(3-Phenyl-1H-pyrazol-5-yl)-4,6-dihydropyrrolo[3,4-c]pyrazole-5(1H)-carbonitrile]
9 | < 10 | Cn1nc(-c2ccccc2)c2c1CN(C#N)C2 [Example 21, 1-Methyl-3-phenyl-4,6-dihydropyrrolo[3,4-c]pyrazole-5(1H)-carbonitrile]
10 | < 10 | Cn1nc2c(c1-c1ccccc1)CN(C#N)C2 [Example 22, 2-Methyl-3-phenyl-2,6-dihydropyrrolo[3,4-c]pyrazole-5(4H)-carbonitrile]
11 | < 10 | CC(C)n1nc(-c2ccccc2)c2c1CN(C#N)C2 [Example 23, 1-Isopropyl-3-phenyl-4,6-dihydropyrrolo[3,4-c]pyrazole-5(1H)-carbonitrile]
12 | 10 to 30 | N#CN1Cc2c(-c3ccccc3)nn(Cc3ccccc3)c2C1 [Example 24, 1-Benzyl-3-phenyl-4,6-dihydropyrrolo[3,4-c]pyrazole-5(1H)-carbonitrile]
13 | 10 to 30 | COc1ccc(C(C)C)cc1-c1nn(Cc2ccccc2)c2c1CN(C#N)C2 [Example 25, 1-Benzyl-3-(5-isopropyl-2-methoxyphenyl)-4,6-dihydropyrrolo[3,4-c]pyrazole-5(1H)-carbonitrile]
14 | < 10 | N#CN1Cc2[nH]nc(-c3ccccc3)c2C1 [Example 29, 3-Phenyl-4,6-dihydropyrrolo[3,4-c]pyrazole-5(1H)-carbonitrile]
15 | < 10 | Cn1nc2c(c1Nc1cc3ccccc3cn1)CN(C#N)C2 [Example 30, 3-(Isoquinolin-3-ylamino)-2-methyl-2,6-dihydropyrrolo[3,4-c]pyrazole-5(4H)-carbonitrile]
16 | < 10 | Cc1ccc(C(=O)NCc2nn(-c3ccccc3)c3c2CN(C#N)C3)cc1 [Example 35, N-((5-Cyano-1-phenyl-1,4,5,6-tetrahydropyrrolo[3,4-c]pyrazol-3-yl)methyl)-4-methylbenzamide]
17 | 10 to 30 | CC(=O)NCc1nn(-c2ccccc2)c2c1CN(C#N)C2 [Example 36, N-((5-Cyano-1-phenyl-1,4,5,6-tetrahydropyrrolo[3,4-c]pyrazol-3-yl)methyl)acetamide]

Continued, molecule first:

Row | Compound | IC50 [µM]
18 | COc1ccc(-n2ncc3c2CN(C#N)C3)cc1 [Example 1, 1-(4-Methoxyphenyl)-4,6-dihydropyrrolo[3,4-c]pyrazole-5(1H)-carbonitrile] | 10 to 30
19 | N#CN1Cc2cnn(-c3ccc(F)cc3)c2C1 [Example 3, 1-(4-Fluorophenyl)-4,6-dihydropyrrolo[3,4-c]pyrazole-5(1H)-carbonitrile] | < 10
20 | N#CN1Cc2cnn(-c3ccc(C(N)=O)cc3)c2C1 [Example 5, 4-(5-Cyano-5,6-dihydropyrrolo[3,4-c]pyrazol-1(4H)-yl)benzamide] | 10 to 30
21 | N#CN1Cc2cnn(-c3cnc4ccccc4c3)c2C1 [Example 6, 1-(Quinolin-3-yl)-4,6-dihydropyrrolo[3,4-c]pyrazole-5(1H)-carbonitrile] | < 10
22 | COc1cccc(-n2ncc3c2CN(C#N)C3)c1 [Example 7, 1-(3-Methoxyphenyl)-4,6-dihydropyrrolo[3,4-c]pyrazole-5(1H)-carbonitrile] | 10 to 30
23 | N#CN1Cc2cnn(-c3cccc(C(=O)NCc4ccccc4)c3)c2C1 [Example 11, N-Benzyl-3-(5-cyano-5,6-dihydropyrrolo[3,4-c]pyrazol-1(4H)-yl)benzamide] | 10 to 30
24 | CC(NC(=O)c1cccc(-n2ncc3c2CN(C#N)C3)c1)c1ccccc1 (stereo not shown) [Example 12, 3-(5-Cyano-5,6-dihydropyrrolo[3,4-c]pyrazol-1(4H)-yl)-N-(1-phenylethyl)benzamide] | 10 to 30
25 | N#CN1Cc2cnn(-c3cccc(C(=O)NCc4ccccn4)c3)c2C1 [Example 13, 3-(5-Cyano-5,6-dihydropyrrolo[3,4-c]pyrazol-1(4H)-yl)-N-(pyridin-2-ylmethyl)benzamide] | < 10
26 | N#CN1Cc2cnn(-c3ccc(C(=O)NCc4ccccn4)cc3)c2C1 [Example 14, 4-(5-Cyano-5,6-dihydro-pyrrolo[3,4-c]pyrazol-1(4H)-yl)-N-(pyridin-2-ylmethyl)benzamide] | 10 to 30
27 | CNC(=O)c1ccc(-n2ncc3c2CN(C#N)C3)cc1 [Example 15, 4-(5-Cyano-5,6-dihydropyrrolo[3,4-c]pyrazol-1(4H)-yl)-N-methylbenzamide] | 10 to 30
28 | Cn1ncc2cc(-n3ncc4c3CN(C#N)C4)ccc21 [Example 17, 1-(1-Methyl-1H-indazol-5-yl)-4,6-dihydropyrrolo[3,4-c]pyrazole-5(1H)-carbonitrile] | < 10
29 | CNC(=O)c1cc(-n2ncc3c2CN(C#N)C3)ccc1OC [Example 18, 5-(5-Cyano-5,6-dihydropyrrolo[3,4-c]pyrazol-1(4H)-yl)-2-methoxy-N-methylbenzamide] | 30 to 100
30 | COc1ccc(C(C)C)cc1-c1n[nH]c2c1CN(C#N)C2 [Example 26, 3-(5-Isopropyl-2-methoxyphenyl)-4,6-dihydropyrrolo[3,4-c]pyrazole-5(1H)-carbonitrile] | < 10
31 | Cc1ccc(F)c(-c2n[nH]c3c2CN(C#N)C3)c1 [Example 27, 3-(2-Fluoro-5-methylphenyl)-4,6-dihydropyrrolo[3,4-c]pyrazole-5(1H)-carbonitrile] | < 10
32 | N#CN1Cc2cnn(-c3cc(C(N)=O)n[nH]3)c2C1 [Example 28, 5-(5-Cyano-5,6-dihydropyrrolo[3,4-c]pyrazol-1(4H)-yl)-1H-pyrazole-3-carboxamide] | 10 to 30
33 | N#CN1Cc2[nH]nc(Nc3cc4ccccc4cn3)c2C1 [Example 31, 3-(Isoquinolin-3-ylamino)-4,6-dihydropyrrolo[3,4-c]pyrazole-5(1H)-carbonitrile] | < 10
34 | N#CN1Cc2c(Nc3cc4ccccc4cn3)nn(Cc3ccccc3)c2C1 [Example 32, 1-Benzyl-3-(isoquinolin-3-ylamino)-4,6-dihydropyrrolo[3,4-c]pyrazole-5(1H)-carbonitrile] | < 10
35 | N#CN1Cc2c(Nc3ccccn3)nn(-c3ccc(C(N)=O)cc3)c2C1 [Example 33, 4-(5-Cyano-3-(pyridin-2-ylamino)-5,6-dihydropyrrolo[3,4-c]pyrazol-1(4H)-yl)benzamide] | 10 to 30
36 | N#CN1Cc2[nH]nc(CNC(=O)c3cc(-c4ccccc4)n[nH]3)c2C1 [Example 34, N-((5-Cyano-1,4,5,6-tetrahydropyrrolo[3,4-c]pyrazol-3-yl)methyl)-3-phenyl-1H-pyrazole-5-carboxamide] | < 10
37 | N#CN1Cc2[nH]nc(-c3ccc(OCc4ccccc4)cc3)c2C1 [Example 37, 3-(4-(Benzyloxy)phenyl)-4,6-dihydropyrrolo[3,4-c]pyrazole-5(1H)-carbonitrile] | < 10
38 | N#Cc1cccc(-c2n[nH]c3c2CN(C#N)C3)c1 [Example 38, 3-(3-Cyanophenyl)-4,6-dihydropyrrolo[3,4-c]pyrazole-5(1H)-carbonitrile] | < 10
39 | Cn1nccc1-c1n[nH]c2c1CN(C#N)C2 [Example 39, 3-(1-Methyl-1H-pyrazol-5-yl)-4,6-dihydropyrrolo[3,4-c]pyrazole-5(1H)-carbonitrile] | 10 to 30
40 | N#CN1Cc2[nH]nc(-c3cccc(OC(F)(F)F)c3)c2C1 [Example 40, 3-(3-(Trifluoro-methoxy)phenyl)-4,6-dihydropyrrolo[3,4-c]pyrazole-5(1H)-carbonitrile] | 10 to 30

Reference: patent US11306096B2, “4,6 dihydropyrrolo [3,4-C] pyrazole-5 (1H)-carbonitrile derivates for treating cancer” (MISSION THERAPEUTICS LIMITED, priority 2016, dated 2022)
